Laboratory results taken from publication PMC6099690, “TRPA1 Modulating C14 Polyacetylenes from the Iranian Endemic Plant Echinophora platyloba” (Molecules : A Journal of Synthetic Chemistry and Natural …, 2018).

Experiments:
rat TRPA1 [1] = target: T1, rat TRPA1 (Rattus norvegicus, UniProt Q6RI86); experiment: Calcium influx (Fluo-4 fluorimetric) agonist assay in HEK293 cells transfected with rTRPA1; type: cell-based; settings: for EC50: half-maximal increase in [Ca2+]i, read-out: Potency EC50; for Efficacy: maximum [Ca2+]i elevation as % of allylisothiocyanate (AITC) at 100 μM
T1 construct: expressed in transfected cells
T1 sequence (Q6RI86 whole entry): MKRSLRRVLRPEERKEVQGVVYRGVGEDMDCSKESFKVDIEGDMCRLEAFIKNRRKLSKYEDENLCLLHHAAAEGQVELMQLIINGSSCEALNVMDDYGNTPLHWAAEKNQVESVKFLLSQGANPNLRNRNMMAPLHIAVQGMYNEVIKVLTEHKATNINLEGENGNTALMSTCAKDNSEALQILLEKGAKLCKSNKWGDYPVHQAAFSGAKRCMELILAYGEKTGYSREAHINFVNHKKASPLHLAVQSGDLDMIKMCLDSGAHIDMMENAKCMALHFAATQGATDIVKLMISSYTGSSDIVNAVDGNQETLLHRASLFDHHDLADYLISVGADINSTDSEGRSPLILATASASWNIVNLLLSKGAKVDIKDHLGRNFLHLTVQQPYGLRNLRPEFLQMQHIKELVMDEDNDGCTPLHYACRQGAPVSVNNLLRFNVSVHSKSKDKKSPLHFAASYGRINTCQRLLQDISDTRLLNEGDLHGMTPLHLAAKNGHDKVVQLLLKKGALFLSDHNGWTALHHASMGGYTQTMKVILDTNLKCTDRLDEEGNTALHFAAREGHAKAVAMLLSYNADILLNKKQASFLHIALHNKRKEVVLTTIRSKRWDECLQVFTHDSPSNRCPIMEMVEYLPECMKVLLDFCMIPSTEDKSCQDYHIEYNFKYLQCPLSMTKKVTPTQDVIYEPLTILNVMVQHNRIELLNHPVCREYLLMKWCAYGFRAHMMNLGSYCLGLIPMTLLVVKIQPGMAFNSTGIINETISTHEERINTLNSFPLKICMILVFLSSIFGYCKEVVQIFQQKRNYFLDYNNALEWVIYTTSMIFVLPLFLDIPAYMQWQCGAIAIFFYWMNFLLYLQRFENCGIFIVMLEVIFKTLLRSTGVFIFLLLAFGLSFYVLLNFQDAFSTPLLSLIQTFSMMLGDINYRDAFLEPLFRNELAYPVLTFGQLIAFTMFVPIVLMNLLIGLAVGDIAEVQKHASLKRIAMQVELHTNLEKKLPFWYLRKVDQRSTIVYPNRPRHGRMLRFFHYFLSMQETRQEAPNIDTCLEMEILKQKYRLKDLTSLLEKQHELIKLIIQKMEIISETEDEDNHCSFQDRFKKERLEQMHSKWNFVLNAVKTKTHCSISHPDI
Experimental: (§1) HEK-293 cells stably over-expressing recombinant rat TRPA1, TRPM8, TRPV2-4, TRPM8 or human TRPV1 were selected by Geneticin 600 μg mL^−1, grown on 100-mm diameter Petri dishes as monolayers in minimum essential medium supplemented with non-essential amino acids, 10% fetal bovine serum, and 2 mM glutamine, and maintained under 5% CO2 at 37 °C. Stable expression of each channel was checked by quantitative real time-PCR. The effect of the substances on intracellular Ca^2+ concentration [Ca^2+]i was determined using Fluo-4, a selective intracellular fluorescent probe for Ca^2+. Toward this aim, on the day of the experiment, cells over-expressing the TRP channels were loaded for 1 h in the dark at room temperature with the methyl ester Fluo4-AM (4 μM in DMSO containing 0.02% Pluronic F-127, Invitrogen, Carlsbad, CA, USA) in minimum essential medium without fetal bovine serum. After the loading, cells were washed twice in Tyrode’s buffer (145 mM NaCl, 2.5 mM KCl, 1.5 mM CaCl2, 1.2 mM MgCl2, 10 mM D-glucose, and 10 mM HEPES, pH 7.4), re-suspended in Tyrode’s buffer, and transferred (about 100,000 cells) to the quartz cuvette of the spectrofluorimeter (Perkin-Elmer LS50B; PerkinElmer Life and Analytical Sciences, Waltham, MA, USA) under continuous stirring. [Ca^2+]i was determined before and after the addition of various concentrations of test compounds by measuring cell fluorescence at 25 °C (λEX = 488 nm, λEM = 516 nm). Curve fitting (sigmoidal dose-response variable slope) and parameter estimation were performed with GraphPad Prism® (GraphPad Software Inc., San Diego, CA, USA). Potency was expressed as the concentration of test substances exerting a half-maximal agonist effect (i.e., half-maximal increases in [Ca^2+]i (EC50), calculated by using GraphPad®. The efficacy of the agonists was first determined by normalizing their effect to the maximum Ca^2+ influx effect on [Ca^2+]i observed with application of 4 μM ionomycin (Sigma, St. Louis, MO, USA). The increases in fluorescence in wild-type HEK293 cells (i.e., not transfected with any construct) were used as baseline and subtracted from the values obtained from transfected cells. The effects of TRPA1 agonists are expressed as a percentage of the effect obtained with 100 μM allyl isothiocyanate (AITC). Antagonist/desensitizing behavior was evaluated for TRPA1 by adding the test compounds in the quartz cuvette 5 min before stimulation of cells with the agonist AITC (100 μM). Data are expressed as the concentration exerting a half maximal inhibition of agonist-induced [Ca^2+]i elevation (IC50), which was calculated again using GraphPad Prism® software. The effect on [Ca^2+]i exerted by agonist alone was taken as 100%. Dose-response curves were fitted by a sigmoidal regression with variable slope. All determinations were at least performed in triplicate. Statistical analysis of the data was performed by analysis of variance at each point using ANOVA followed by Bonferroni’s test.

rat TRPA1 [2] = target: T1, rat TRPA1; experiment: Antagonist/desensitizing assay: inhibition of AITC (100 μM)-induced [Ca2+]i elevation in rTRPA1-HEK293 cells; type: cell-based; settings: compound added 5 min before stimulation with AITC 100 μM; HEK293 cells transfected with rTRPA1; read-out: IC50 inh TRPA1 (AITC 100 μM)
Experimental: as §1, with “Potency was expressed as the concentration of test substances exerting a half-maximal agonist effect (i.e., half-maximal increases in [Ca^2+]i (EC50), calculated by using GraphPad®. The efficacy of the agonists was first determined by normalizing their effect to the maximum Ca^2+ influx effect on [Ca^2+]i observed with application of 4 μM ionomycin (Sigma, St. Louis, MO, USA). The increases in fluorescence in wild-type HEK293 cells (i.e., not transfected with any construct) were used as baseline and subtracted from the values obtained from transfected cells. The effects of TRPA1 agonists are expressed as a percentage of the effect obtained with 100 μM allyl isothiocyanate (AITC).” left out, “The effect on [Ca^2+]i exerted by agonist alone was taken as 100%. Dose-response curves were fitted by a sigmoidal regression with variable slope. All determinations were at least performed in triplicate. Statistical analysis of the data was performed by analysis of variance at each point using ANOVA followed by Bonferroni’s test.” left out

EC50 (rat TRPA1 [1]) [µM] | Efficacy (rat TRPA1 [1]) [% AITC] | Efficacy (rat TRPA1 [1]; listed as 3) | Efficacy (rat TRPA1 [1]; listed as 5) | Efficacy (rat TRPA1 [1]; listed as 4) | SMILES | IC50 (rat TRPA1 [2]) [µM]
30.9 ± 2.8 | 51.7 ± 1.3 | about 52 % AITC | – | – | CC#CC#CC#CCCc1cccc(=O)o1 [Echinophorin D (3), echinophorin D] | 87 ± 1.5
20.3 ± 3.2 | 81.0 ± 3.3 | – | about 80 % AITC | – | CCCC#CC#CCCc1cccc(=O)o1 [Echinophorin A (5), echinophorin A] | 45.7 ± 3.5
25 ± 3 | 82.0 ± 2.8 | – | – | about 80 % AITC | C/C=C\C#CC#CCCc1cccc(=O)o1 [Echinophorin B (4), echinophorin B] | 37.2 ± 0.8
